According to patent publication US12070520B2, “Dermal delivery device” (Agile Therapeutics, Inc., priority 2007, dated 2024):

Assay: Control of loss of volatile components: amounts in the AI patch after storage (gas chromatography)
Format: physicochemical
Procedure: A transdermal hormone delivery device was prepared comprising an internal backing layer, an AI layer, and a release liner. […] The device also comprised an overlay comprising a polyurethane spun bonded non-woven backing, which is able to absorb large amounts of the volatile excipients, DMSO and ethyl lactate, an acrylic PSA coated onto the polyurethane foam, and a PIB PSA coated on top of the acrylic PSA. […] The release liner was a Mylar polyester film coated with a fluoropolymer release coating. […] The devices were placed in a 25 C or 40 C oven. After 6 weeks and 12 weeks, devices were removed from the oven and the active section of each device was separated from the overlay. […] (12 weeks exposure to 40 C is intended to simulate 18 months exposure to room temperature (25 C)).

SMILES	Amount in the AI patch (6 wks, 40 C.) [wt %]	Amount in the AI patch (12 wks, 40 C.) [wt %]	Amount in the AI patch (12 wks, room temp) [wt %]
C[S+](C)[O-] [DMSO, dimethyl sulfoxide]	9.02	8.98	9.08
CCOC(=O)C(C)O (stereo not drawn) [Ethyl Lactate, ethyl lactate]	1.66	1.57	1.79
CCCCCCCCCCCCOC(=O)C(C)O (stereo not drawn) [Lauryl Lactate, lauryl lactate]	9.02	9.20	9.10
